# Active and inactive are the calls of the source. The rule behind the calls is not given here.
# How the values were obtained:
# [1] = test system: A-431; experiment: Antiproliferative activity against human A431 cells harboring wild type EGFR mutant assessed as reduction in cell viability incubated for 72 hrs by celltiter-glo assay; type: functional, cell-based; conditions: A-431, 72 h
# [2] = test system: CNE-2; experiment: Antiproliferative activity against human CNE-2 cells assessed as reduction in cell viability incubated for 48 hrs by MTT assay; type: functional, cell-based; conditions: CNE-2, 48 h
# [3] = test system: MDA-MB-231; experiment: Antiproliferative activity against human MDA-MB-231 cells assessed as reduction in cell viability incubated for 48 hrs by MTT assay; type: functional, cell-based; conditions: MDA-MB-231, 48 h
# [4] = target: Serine/threonine-protein kinase mTOR (Homo sapiens, UniProt P42345); experiment: Inhibition of mTOR (unknown origin) using U-Light-4E-BP1 peptide as a substrate in presence of ATP incubated for 45 mins by Lance ultra assay
# [5] = target: Phosphatidylinositol 4,5-bisphosphate 3-kinase catalytic subunit beta isoform (Homo sapiens, UniProt P42338); experiment: Inhibition of PI3Kbeta (unknown origin) using PIP2 as substrate in presence of ATP incubated for 60 mins by ADP-glo based luminescence assay
# [6] = test system: HeLa; experiment: Antiproliferative activity against human HeLa cells assessed as reduction in cell viability incubated for 48 hrs by MTT assay; type: functional, cell-based
# [7] = target: Phosphatidylinositol 4,5-bisphosphate 3-kinase catalytic subunit alpha isoform (Homo sapiens, UniProt P42336); experiment: Inhibition of PI3Kalpha (unknown origin) using PIP2 as substrate in presence of ATP incubated for 60 mins by ADP-glo based luminescence assay
# [8] = test system: NCI-H1975; experiment: Antiproliferative activity against human NCI-H1975 cells harboring EGFR L858R/T790M double mutant assessed as reduction in cell viability incubated for 72 hrs by celltiter-glo assay; type: functional, cell-based; conditions: NCI-H1975, 72 h
# [9] = test system: HCT-116; experiment: Antiproliferative activity against human HCT-116 cells assessed as reduction in cell viability incubated for 48 hrs by MTT assay; type: functional, cell-based; conditions: HCT-116, 48 h
# [10] = target: T1, Phosphatidylinositol 4,5-bisphosphate 3-kinase catalytic subunit delta isoform (Homo sapiens, UniProt O00329); experiment: Inhibition of PI3Kdelta (unknown origin) using PIP2 as substrate in presence of ATP incubated for 60 mins by ADP-glo based luminescence assay
# T1 sequence (O00329 whole entry): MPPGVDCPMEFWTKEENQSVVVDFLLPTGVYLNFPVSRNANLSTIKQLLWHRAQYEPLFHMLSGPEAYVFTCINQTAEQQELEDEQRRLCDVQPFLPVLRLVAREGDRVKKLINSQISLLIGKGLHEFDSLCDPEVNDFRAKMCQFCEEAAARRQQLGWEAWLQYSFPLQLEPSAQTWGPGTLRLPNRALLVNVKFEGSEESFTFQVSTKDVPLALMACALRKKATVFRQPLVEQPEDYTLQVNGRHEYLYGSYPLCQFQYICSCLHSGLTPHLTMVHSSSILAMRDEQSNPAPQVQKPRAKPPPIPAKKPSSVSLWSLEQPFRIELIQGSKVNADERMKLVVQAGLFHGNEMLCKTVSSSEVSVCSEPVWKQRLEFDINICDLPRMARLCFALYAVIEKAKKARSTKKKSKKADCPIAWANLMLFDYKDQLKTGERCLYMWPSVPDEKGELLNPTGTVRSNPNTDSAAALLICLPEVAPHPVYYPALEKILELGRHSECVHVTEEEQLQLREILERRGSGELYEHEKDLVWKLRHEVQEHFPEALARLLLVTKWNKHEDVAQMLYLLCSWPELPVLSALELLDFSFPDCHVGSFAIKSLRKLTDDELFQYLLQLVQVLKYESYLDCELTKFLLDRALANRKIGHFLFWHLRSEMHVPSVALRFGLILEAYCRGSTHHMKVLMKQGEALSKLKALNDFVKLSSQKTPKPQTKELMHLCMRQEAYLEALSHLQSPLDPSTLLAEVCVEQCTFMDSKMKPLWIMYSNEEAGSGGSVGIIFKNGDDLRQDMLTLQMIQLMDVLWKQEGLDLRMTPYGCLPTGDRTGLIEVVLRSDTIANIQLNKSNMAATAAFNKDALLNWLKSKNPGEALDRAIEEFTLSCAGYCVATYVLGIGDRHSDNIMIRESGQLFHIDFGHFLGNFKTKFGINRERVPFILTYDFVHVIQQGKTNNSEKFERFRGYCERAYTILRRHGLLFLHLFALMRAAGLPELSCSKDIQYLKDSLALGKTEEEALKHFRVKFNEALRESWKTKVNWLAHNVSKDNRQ
# [11] = target: Phosphatidylinositol 4,5-bisphosphate 3-kinase catalytic subunit gamma isoform (Homo sapiens, UniProt P48736); experiment: Inhibition of PI3Kgamma (unknown origin) using PIP2 as substrate in presence of ATP incubated for 60 mins by ADP-glo based luminescence assay
# [12] = test system: BaF3; experiment: Antiproliferative activity against mouse BaF3 cells harboring EGFR L858R/T790M/C797S mutant assessed as reduction in cell viability incubated for 72 hrs by celltiter-glo assay; type: toxicity, cell-based; conditions: BaF3, 72 h
# [13] = Metabolic stability in Sprague-Dawley rat liver microsome; type: ADME; conditions: microsomes
# [14] = test system: HCT-116; experiment: Antitumor activity against human HCT-116 cells xenografted in BALB/c nude mouse assessed as tumor growth inhibition at 20 mg/kg, iv administered for 19 days; type: functional; conditions: HCT-116, iv, 456 h, time 19 day, read-out: TGI
# [15] = AUC (0 to infinity) in Sprague-Dawley rat at 20 mg/kg, iv by LC-MS/MS analysis; type: ADME, organism-based; parameters: route intravenous, time infinity, dose 20 mg/kg; conditions: in vivo
# [16] = test system: Mus musculus; experiment: Hyperglycemic activity in ICR mouse model assessed as effect on blood glucose level at 20 mg/kg, iv by glucometer; type: toxicity, organism-based; conditions: in vivo
# [17] = target: Cytochrome P450 1A2 (Homo sapiens, UniProt P05177); experiment: Inhibition of CYP1A2 (unknown origin); type: ADME
# [18] = AUC (0 to 72 hrs) in Sprague-Dawley rat at 20 mg/kg, iv by LC-MS/MS analysis; type: ADME, organism-based; parameters: time < 72 hr, route intravenous, dose 20 mg/kg; conditions: in vivo
# [19] = test system: HCT-116; experiment: Antitumor activity against human HCT-116 cells xenografted in BALB/c nude mouse assessed as tumor size at 20 mg/kg, iv administered for 19 days (reference value: 1264.1+/-95.7 mm3); type: functional; conditions: time 19 day
# [20] = target: Cytochrome P450 2C19 (Homo sapiens, UniProt P33261); experiment: Inhibition of CYP2C19 (unknown origin); type: ADME
# [21] = test system: Heart; experiment: Toxicity in BALB/c mouse assessed as effect on heart by H and E staining based histological analysis; type: tissue-based; conditions: in vivo
# [22] = MRT in Sprague-Dawley rat at 20 mg/kg, iv by LC-MS/MS analysis; type: ADME, organism-based; conditions: in vivo
# [23] = target: Cytochrome P450 2C9 (Homo sapiens, UniProt P11712); experiment: Inhibition of CYP2C9 (unknown origin); type: ADME
# [24] = test system: Kidney; experiment: Toxicity in BALB/c mouse assessed as effect on kidney by H and E staining based histological analysis; type: tissue-based; conditions: in vivo
# [25] = test system: Liver; experiment: Toxicity in BALB/c mouse assessed as effect on liver by H and E staining based histological analysis; type: tissue-based; conditions: in vivo
# [26] = test system: Spleen; experiment: Toxicity in BALB/c mouse assessed as effect on spleen by H and E staining based histological analysis; type: tissue-based; conditions: in vivo
# [27] = test system: Lung; experiment: Toxicity in BALB/c mouse assessed as effect on lungs by H and E staining based histological analysis; type: tissue-based; conditions: in vivo
# [28] = Half life in Sprague-Dawley rat at 20 mg/kg, iv by LC-MS/MS analysis; type: ADME, organism-based; conditions: in vivo
# [29] = target: Cytochrome P450 2D6 (Homo sapiens, UniProt P10635); experiment: Inhibition of CYP2D6 (unknown origin); type: ADME
# [30] = Tmax in Sprague-Dawley rat at 20 mg/kg, iv by LC-MS/MS analysis; type: ADME, organism-based; conditions: in vivo
# [31] = Volume of distribution at steady state in Sprague-Dawley rat at 20 mg/kg, iv by LC-MS/MS analysis; type: ADME, organism-based; conditions: in vivo
# [32] = test system: HCT-116; experiment: Inhibition of AKT phosphorylation at S473 residue in human HCT-116 cells at 10 uM after 24 hrs by Western blot analysis; type: cell-based
# [33] = test system: MCF7; experiment: Antiproliferative activity against human MCF7 cells assessed as reduction in cell viability incubated for 48 hrs by MTT assay; type: functional, cell-based; conditions: MCF7, 48 h
# [34] = test system: HepG2; experiment: Antiproliferative activity against human HepG2 cells assessed as reduction in cell viability incubated for 48 hrs by MTT assay; type: functional, cell-based; conditions: HepG2, 48 h
# Phosphatidylinositol 4,5-bisphosphate 3-kinase catalytic subunit alpha isoform, sequence (P42336 whole entry, canonical isoform): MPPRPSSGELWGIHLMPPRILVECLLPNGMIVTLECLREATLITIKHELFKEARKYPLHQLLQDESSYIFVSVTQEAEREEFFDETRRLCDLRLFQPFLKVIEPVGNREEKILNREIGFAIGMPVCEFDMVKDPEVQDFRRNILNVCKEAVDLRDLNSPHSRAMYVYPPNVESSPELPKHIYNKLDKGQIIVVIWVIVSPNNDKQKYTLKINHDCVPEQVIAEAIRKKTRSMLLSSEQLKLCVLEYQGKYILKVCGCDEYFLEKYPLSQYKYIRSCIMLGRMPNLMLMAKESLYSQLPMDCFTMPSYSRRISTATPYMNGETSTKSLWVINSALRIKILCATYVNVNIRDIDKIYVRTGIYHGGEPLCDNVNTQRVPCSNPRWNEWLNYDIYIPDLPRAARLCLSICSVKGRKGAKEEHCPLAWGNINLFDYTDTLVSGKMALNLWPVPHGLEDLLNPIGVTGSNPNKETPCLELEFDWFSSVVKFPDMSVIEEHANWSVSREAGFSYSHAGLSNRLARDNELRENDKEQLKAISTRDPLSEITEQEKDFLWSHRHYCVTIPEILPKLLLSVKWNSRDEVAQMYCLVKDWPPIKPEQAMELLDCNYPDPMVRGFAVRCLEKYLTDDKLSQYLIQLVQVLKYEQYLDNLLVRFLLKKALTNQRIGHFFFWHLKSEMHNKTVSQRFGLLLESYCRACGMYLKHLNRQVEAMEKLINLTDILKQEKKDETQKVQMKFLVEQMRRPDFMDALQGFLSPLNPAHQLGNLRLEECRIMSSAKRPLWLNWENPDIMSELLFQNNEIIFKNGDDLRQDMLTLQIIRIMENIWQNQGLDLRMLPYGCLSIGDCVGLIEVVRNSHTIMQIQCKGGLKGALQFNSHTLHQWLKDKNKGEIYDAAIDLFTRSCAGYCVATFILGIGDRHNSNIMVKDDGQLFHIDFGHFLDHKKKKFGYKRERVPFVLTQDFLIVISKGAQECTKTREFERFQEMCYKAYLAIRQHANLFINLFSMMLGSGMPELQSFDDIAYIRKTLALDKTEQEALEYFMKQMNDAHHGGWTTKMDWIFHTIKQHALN
# Phosphatidylinositol 4,5-bisphosphate 3-kinase catalytic subunit gamma isoform, sequence (P48736 whole entry, canonical isoform): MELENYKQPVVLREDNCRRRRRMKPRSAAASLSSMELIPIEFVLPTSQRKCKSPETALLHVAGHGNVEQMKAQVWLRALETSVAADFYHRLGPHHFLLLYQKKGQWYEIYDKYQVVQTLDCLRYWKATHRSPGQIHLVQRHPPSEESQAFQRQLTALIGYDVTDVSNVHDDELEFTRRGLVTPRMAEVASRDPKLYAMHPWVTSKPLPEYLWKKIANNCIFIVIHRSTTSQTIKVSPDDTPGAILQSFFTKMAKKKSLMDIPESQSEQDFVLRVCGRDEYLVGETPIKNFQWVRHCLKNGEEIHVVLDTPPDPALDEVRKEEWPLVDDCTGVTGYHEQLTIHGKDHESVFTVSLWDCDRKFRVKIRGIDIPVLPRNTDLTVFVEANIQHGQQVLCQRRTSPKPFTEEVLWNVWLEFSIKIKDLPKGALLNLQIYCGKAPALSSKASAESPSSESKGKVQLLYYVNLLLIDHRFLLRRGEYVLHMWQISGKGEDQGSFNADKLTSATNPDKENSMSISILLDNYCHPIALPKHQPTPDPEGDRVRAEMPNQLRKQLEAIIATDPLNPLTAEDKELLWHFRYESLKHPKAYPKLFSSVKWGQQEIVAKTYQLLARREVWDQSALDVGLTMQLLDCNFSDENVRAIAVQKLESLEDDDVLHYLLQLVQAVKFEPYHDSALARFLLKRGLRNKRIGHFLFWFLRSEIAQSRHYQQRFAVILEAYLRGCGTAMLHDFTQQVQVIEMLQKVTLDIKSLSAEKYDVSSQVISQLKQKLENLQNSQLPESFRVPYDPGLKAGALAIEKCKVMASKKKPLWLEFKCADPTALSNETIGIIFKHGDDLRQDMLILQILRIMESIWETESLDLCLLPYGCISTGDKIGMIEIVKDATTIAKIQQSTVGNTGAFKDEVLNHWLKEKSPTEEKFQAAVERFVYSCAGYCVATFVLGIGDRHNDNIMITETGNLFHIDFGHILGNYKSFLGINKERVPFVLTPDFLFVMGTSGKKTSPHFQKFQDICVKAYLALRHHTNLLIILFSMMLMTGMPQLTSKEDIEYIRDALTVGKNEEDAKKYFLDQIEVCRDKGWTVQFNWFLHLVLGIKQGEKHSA
# Phosphatidylinositol 4,5-bisphosphate 3-kinase catalytic subunit beta isoform, sequence (P42338 whole entry, canonical isoform): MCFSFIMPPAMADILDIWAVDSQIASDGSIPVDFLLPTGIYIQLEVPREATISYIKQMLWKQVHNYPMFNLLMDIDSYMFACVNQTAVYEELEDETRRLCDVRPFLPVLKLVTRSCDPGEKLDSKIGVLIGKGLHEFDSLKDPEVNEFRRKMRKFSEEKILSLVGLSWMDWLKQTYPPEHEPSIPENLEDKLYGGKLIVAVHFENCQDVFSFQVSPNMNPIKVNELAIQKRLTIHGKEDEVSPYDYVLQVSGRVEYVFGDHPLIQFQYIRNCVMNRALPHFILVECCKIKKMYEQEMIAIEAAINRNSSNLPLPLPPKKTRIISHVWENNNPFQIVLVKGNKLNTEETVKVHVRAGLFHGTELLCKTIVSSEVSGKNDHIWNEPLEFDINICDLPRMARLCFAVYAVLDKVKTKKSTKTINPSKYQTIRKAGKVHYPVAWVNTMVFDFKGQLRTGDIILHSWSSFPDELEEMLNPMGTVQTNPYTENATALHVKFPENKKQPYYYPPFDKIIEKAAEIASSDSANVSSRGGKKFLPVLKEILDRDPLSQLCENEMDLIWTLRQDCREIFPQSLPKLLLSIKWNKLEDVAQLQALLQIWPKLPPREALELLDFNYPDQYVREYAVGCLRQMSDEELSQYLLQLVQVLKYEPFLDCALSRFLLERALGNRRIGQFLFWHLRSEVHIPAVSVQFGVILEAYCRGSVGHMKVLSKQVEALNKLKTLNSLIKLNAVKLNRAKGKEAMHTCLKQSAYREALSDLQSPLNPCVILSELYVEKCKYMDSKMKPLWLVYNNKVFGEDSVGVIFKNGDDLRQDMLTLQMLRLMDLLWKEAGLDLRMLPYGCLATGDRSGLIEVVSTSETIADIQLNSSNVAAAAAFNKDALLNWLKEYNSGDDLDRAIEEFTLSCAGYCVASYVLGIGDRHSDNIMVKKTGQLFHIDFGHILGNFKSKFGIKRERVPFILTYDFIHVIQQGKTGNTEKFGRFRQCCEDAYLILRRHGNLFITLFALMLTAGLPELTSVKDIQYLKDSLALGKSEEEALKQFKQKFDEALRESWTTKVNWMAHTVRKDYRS
# Cytochrome P450 2C19, sequence (P33261 whole entry): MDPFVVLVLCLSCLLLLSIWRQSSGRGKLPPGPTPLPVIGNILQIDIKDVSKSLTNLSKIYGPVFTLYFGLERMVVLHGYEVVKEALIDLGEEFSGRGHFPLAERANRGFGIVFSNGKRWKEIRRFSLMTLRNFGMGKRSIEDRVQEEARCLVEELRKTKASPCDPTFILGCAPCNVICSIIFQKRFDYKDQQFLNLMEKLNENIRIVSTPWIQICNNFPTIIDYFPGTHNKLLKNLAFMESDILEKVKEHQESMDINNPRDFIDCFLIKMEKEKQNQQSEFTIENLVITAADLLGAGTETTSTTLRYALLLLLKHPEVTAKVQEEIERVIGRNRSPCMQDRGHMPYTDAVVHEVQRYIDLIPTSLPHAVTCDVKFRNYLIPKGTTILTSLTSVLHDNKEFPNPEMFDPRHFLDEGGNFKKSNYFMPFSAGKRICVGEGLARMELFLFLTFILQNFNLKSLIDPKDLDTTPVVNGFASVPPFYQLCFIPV
# Cytochrome P450 2C9, sequence (P11712 whole entry): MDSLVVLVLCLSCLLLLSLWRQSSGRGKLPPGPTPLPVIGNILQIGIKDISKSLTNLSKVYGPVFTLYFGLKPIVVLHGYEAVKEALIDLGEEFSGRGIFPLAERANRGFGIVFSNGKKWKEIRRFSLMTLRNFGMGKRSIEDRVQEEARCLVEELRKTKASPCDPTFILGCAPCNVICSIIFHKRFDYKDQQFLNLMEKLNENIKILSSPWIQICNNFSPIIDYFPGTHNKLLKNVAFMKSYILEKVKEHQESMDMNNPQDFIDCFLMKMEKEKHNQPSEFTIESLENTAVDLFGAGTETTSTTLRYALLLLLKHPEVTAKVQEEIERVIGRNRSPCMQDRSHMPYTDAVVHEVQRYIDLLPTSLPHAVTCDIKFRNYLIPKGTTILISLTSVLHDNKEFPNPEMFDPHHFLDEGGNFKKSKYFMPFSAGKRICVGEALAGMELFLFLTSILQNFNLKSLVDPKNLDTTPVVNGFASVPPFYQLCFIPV
# Cytochrome P450 2D6, sequence (P10635 whole entry): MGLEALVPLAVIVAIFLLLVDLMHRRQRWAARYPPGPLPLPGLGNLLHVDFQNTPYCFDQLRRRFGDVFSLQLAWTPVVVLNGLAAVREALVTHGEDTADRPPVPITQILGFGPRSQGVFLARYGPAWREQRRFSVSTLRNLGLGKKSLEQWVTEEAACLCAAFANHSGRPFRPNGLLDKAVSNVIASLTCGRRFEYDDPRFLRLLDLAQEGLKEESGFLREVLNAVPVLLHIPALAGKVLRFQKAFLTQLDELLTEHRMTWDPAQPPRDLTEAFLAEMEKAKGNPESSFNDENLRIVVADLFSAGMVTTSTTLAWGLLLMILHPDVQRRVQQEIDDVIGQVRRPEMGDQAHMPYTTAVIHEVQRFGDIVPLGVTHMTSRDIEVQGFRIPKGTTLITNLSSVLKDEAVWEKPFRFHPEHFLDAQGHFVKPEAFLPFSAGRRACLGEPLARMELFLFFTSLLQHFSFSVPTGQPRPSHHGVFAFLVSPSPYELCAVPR
SMILES,IC50 [1] [nM],IC50 [3] [nM],IC50 [4] [nM],IC50 [5] [nM],IC50 [6] [nM],IC50 [7] [nM],IC50 [8] [nM],IC50 [9] [nM],IC50 [10] [nM],IC50 [11] [nM],IC50 [33] [nM],IC50 [34] [nM],IC50 [2] [nM],IC50 [12] [nM],also measured
CN(C)C1CCN(C(=O)c2ccc(NC(=O)Nc3ccc(-c4nc(N5CCOCC5)nc(N5CCOCC5)n4)cc3)cc2)CC1 [GEDATOLISIB],–,–,–,–,–,–,–,–,–,–,–,–,–,–,Stability [13]: Stable; inhibition in vivo at 20 mg/kg [14]: 41.2%; AUC(0-inf) [15]: 42200 ng·h/mL; Activity [16]: Toxic; IC50 [17]: > 50000 nM; AUC(0-t) at 72 h [18]: 41800 ng·h/mL; Activity [19]: 800.3 mm3; IC50 [20]: > 50000 nM; Activity [21]: Non-Toxic; MRT [22]: 9.1 h; IC50 [23]: > 50000 nM; Activity [24]: Non-Toxic; Activity [25]: Non-Toxic; Activity [26]: Non-Toxic; Activity [27]: Non-Toxic; half-life [28]: 15 h; IC50 [29]: > 50000 nM; Tmax [30]: 1.8 min; Vdss [31]: 10.3 L/kg; inhibition [32]: Active
NC(=O)[C@H]1CCCN1C(=O)c1ccc(NC(=O)Nc2ccc(-c3nc(N4CCOCC4)nc(N4CCOCC4)n3)cc2)cc1,–,7350,2.3,3.2,10400,0.6,–,290,13,7.4,10400,–,180,–,–
NC(=O)C1CCCN(C(=O)c2ccc(NC(=O)Nc3ccc(-c4nc(N5CCOCC5)nc(N5CCOCC5)n4)cc3)cc2)C1 (stereo not given),242,250,2.1,–,9690,1.6,601,740,–,–,2290,130,10200,294,–
NC(=O)C1CCN(C(=O)c2ccc(NC(=O)Nc3ccc(-c4nc(N5CCOCC5)nc(N5CCOCC5)n4)cc3)cc2)CC1,585,900,1.9,–,1390,0.7,2440,1510,–,–,3810,510,4170,292,–
NC(=O)[C@@H]1CC(O)CN1C(=O)c1ccc(NC(=O)Nc2ccc(-c3nc(N4CCOCC4)nc(N4CCOCC4)n3)cc2)cc1 (stereo not given in full),6380,39000,2.2,11.9,13500,5.5,5450,4810,16.1,98.8,–,3190,5420,2690,–

# More lines, main results first:
IC50 [1] [nM],IC50 [3] [nM],IC50 [4] [nM],IC50 [5] [nM],IC50 [6] [nM],IC50 [7] [nM],IC50 [8] [nM],IC50 [9] [nM],IC50 [10] [nM],IC50 [11] [nM],IC50 [33] [nM],IC50 [34] [nM],SMILES,IC50 [2] [nM],IC50 [12] [nM],also measured
2500,14600,2.2,14.9,12000,7,2880,2510,29.1,19.4,–,–,CN(C)[C@@H]1C[C@@H](C(N)=O)N(C(=O)c2ccc(NC(=O)Nc3ccc(-c4nc(N5CCOCC5)nc(N5CCOCC5)n4)cc3)cc2)C1,7890,3350,–
1160,940,2.1,5.1,1900,0.9,3360,3660,25,28,–,460,C[C@@H](NC(=O)c1ccc(NC(=O)Nc2ccc(-c3nc(N4CCOCC4)nc(N4CCOCC4)n3)cc2)cc1)C(N)=O,12600,547,–

# From ChEMBL document CHEMBL5046253, “Synthesis and bioevaluation of diaryl urea derivatives as potential antitumor agents for the treatment of human colorectal cancer” (Eur J Med Chem, 2022)
